Legend:
[1] = tested on: LL97A cells; test: TGFβ-induced COL1A1 and a-SMA expression by Q-RT-PCR in LL97A cells; type: cell-based, human; conditions: 48 hours, FIG. 8
Method: LL97A cells were pretreated in F12K medium containing 1% FBS for 24 hours and then the cells were treated with TGFβ in the absence or presence of Oxy210 at the indicated concentrations. After 48 hours, RNA was extracted and analyzed by Q-RT-PCR for the expression of the genes as indicated and normalized to GAPDH expression.

[2] = tested on: profibrogenic genes; test: Basal expression of profibrogenic genes by Q-RT-PCR in primary human pericytes; type: cell-based; conditions: DMEM 5% FBS, 72 hours, normalized to GAPDH, FIG. 2, p<0.01 vs. control
Method: Primary human pericytes were treated with control vehicle or Oxy210 for 72 hours in DMEM containing 5% FBS. RNA was extracted and analyzed by Q-RT-PCR for the expression of profibrotic genes and normalized to GAPDH expression.

[3] = tested on: C57BL/6 mice; test: Bleomycin-induced pulmonary fibrosis in mice, H&E staining of lung sections; type: in vivo; conditions: bleomycin once intratracheally, FIG. 10
Method: C57BL/6 mice were treated once intratracheally with bleomycin with or without pirfenidone or Oxy210.

[4] = tested on: IMR-90 cells; test: IMR-90 lung fibroblast cell proliferation (cell count); type: cell-based; conditions: IMR-90 normal human lung fibroblast cells, DMEM 1% FBS, 5 days; FIG. 5, p<0.01 vs. control
Method: IMR-90 cells were treated with Oxy210 at the concentrations as indicated in DMEM containing 1% FBS for 5 days and then were trypsinized and counted.

[5] = tested on: Primary human renal proximal tubular epithelial cells; test: TGFβ-induced epithelial mesenchymal transition (EMT) of renal tubular epithelial cells, Q-RT-PCR of EMT markers and Gli1; type: cell-based; conditions: TGFβ 10 ng/mL, 48 hours, FIG. 4, p<0.01 vs. TGFβ
Method: Primary human renal proximal tubular epithelial cells cultured in RPMI containing 1% FBS were treated with TGFβ (10 ng/mL) in the absence or presence of Oxy210 for 48 hours. RNA was extracted and analyzed by Q-RT-PCR for the expression of the EMT markers and Gli1 and normalized to GAPDH expression.

[6] = tested on: LL97A cells; test: Basal COL1A1 expression by Q-RT-PCR in LL97A cells; type: cell-based, human; conditions: F12K 1% FBS, 72 hours, FIG. 9, p<0.01 vs control
Method: LL97A cells were treated in F12K medium containing 1% FBS and Oxy210 at the indicated concentrations for 72 hours. RNA was then extracted and analyzed by Q-RT-PCR for the expression of the genes as indicated and normalized to GAPDH expression.

[7] = tested on: LL97A cells; test: LL97A lung fibroblast cell proliferation (cell count); type: cell-based; conditions: LL97A human lung fibroblast cells from a subject with idiopathic pulmonary fibrosis, F12K 1% FBS, 5 days; FIG. 6
Method: LL97A cells were treated with Oxy210 at the concentrations as indicated in F12K containing 1% FBS for 5 days and then were trypsinized and counted.

[8] = tested on: IMR-90 cells; test: Basal profibrotic gene expression by Q-RT-PCR in IMR-90 cells; type: cell-based, human; conditions: F12K 1% FBS, 72 hours, FIG. 7
Method: IMR-90 cells were treated in F12K medium containing 1% FBS and Oxy210 at the indicated concentrations for 72 hours. RNA was then extracted and analyzed by Q-RT-PCR for the expression of the genes as indicated and normalized to GAPDH expression.

[9] = tested on: TGFβ target genes; test: Basal expression of TGFβ target genes by Q-RT-PCR in primary human liver stellate cells; type: cell-based; conditions: DMEM 1% FBS, 48 hours, normalized to GAPDH, FIG. 1, p<0.01 vs. control
Method: Primary human liver stellate cells were treated in DMEM containing 1% fetal bovine serum (FBS) for 24 hours. Next, they were treated with control vehicle or Oxy210. After 48 hours, RNA was extracted and analyzed by Q-RT-PCR for the expression of the genes as indicated and normalized to GAPDH expression.

C[C@]12CC[C@H]3[C@@H](CC=C4C[C@@H](O)CC[C@@]43C)[C@@H]1CC[C@@H]2[C@](C)(O)CCc1cccnc1 [Oxy210]
TGFβ-induced COL1A1 expression [1]: inhibits | TGFβ-induced a-SMA expression [1]: inhibits | basal expression of profibrogenic genes [2]: inhibition of basal expression of profibrogenic genes | bleomycin-induced damages to the lung architecture [3]: clear beneficial effect | cell proliferation [4]: inhibition of IMR-90 normal human lung fibroblast cell proliferation | TGFβ-induced epithelial mesenchymal transition (EMT) [5]: inhibition of TGFβ-induced epithelial mesenchymal transition (EMT) | basal COL1A1 expression [6]: inhibits basal COL1A1 expression | cell proliferation [7]: inhibition of proliferation of LL97A human lung fibroblast cells | basal profibrotic gene expression [8]: inhibits basal profibrotic gene expression | basal expression of TGFβ target genes [9]: inhibition of basal expression of TGFβ target genes

From US20230381201A1, “METHODS AND COMPOSITIONS FOR TREATING FIBROTIC DISEASES” (MAX BioPharma, Inc., priority 2020, published 2023)
